Drawing on patent US10000476B2, “Pyridone derivative, pharmaceutical containing the same and methods of use thereof” (KAKEN PHARMACEUTICAL CO., LTD., priority 2011, dated 2018), this text covers IC50 for 23 compounds.

The target in this assay is TACE (Homo sapiens (Human), UniProt P78536). In words: TACE inhibition test (in vitro). It is filed as biochemical. Conditions: fluorescent synthetic substrate, 37° C., 1.5 hours. Put shortly: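 Recombinant enzyme (cDNA from THP-1 cells, expressed in mammalian or insect cells) with quenched substrate Nma-Leu-Ala-Gln-Ala-Val-Arg-Ser-Ser-Lys(Dnp)-D-Arg-NH2. Incubated 1.5 h at 37 °C; fluorescence read at ex 355/em 460 nm; IC50 from inhibition rate.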
Sequence of TACE (P78536 215-824): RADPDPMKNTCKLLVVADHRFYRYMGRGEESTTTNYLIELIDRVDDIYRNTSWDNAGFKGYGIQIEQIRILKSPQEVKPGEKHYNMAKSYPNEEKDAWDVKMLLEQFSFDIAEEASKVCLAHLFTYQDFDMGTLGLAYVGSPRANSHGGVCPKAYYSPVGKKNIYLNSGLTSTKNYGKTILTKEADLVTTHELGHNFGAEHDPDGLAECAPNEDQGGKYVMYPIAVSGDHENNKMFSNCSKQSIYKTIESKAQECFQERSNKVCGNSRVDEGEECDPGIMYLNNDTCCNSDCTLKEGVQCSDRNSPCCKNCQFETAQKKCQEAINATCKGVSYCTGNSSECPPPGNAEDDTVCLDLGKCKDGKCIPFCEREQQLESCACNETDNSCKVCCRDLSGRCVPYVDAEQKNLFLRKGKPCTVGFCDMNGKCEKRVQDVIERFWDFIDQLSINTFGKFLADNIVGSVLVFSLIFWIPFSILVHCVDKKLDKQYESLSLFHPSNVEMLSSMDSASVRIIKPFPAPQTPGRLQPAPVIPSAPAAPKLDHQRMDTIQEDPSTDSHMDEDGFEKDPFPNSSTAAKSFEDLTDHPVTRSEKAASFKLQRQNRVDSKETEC
The compound `Cc1cccn(CC2(c3cccc(C#CC(C)(C)C)c3)NC(=O)NC2=O)c1=O` (centres unmarked) [Compound I-63] came in with an IC50 of 100 to 1000 nM.

Turning to `Cc1cccn(CC2(c3ccc4c(c3)OCCO4)NC(=O)NC2=O)c1=O` (centres unmarked) [Compound I-59], the IC50 is < 100 nM.

Turning to `Cc1cccn(CC2(c3cccc(OCc4ccccc4)c3)NC(=O)NC2=O)c1=O` (centres unmarked) [Compound I-58], the half-maximal inhibitory concentration (IC50) is < 100 nM.

Regarding `Cc1cccn(CC2(c3ccc(C#CC(C)(C)C)cc3)NC(=O)NC2=O)c1=O` (centres unmarked) [Compound I-33, 5-[4-(3,3-dimethylbut-1-yn-1-yl)phenyl]-5-[(3-methyl-2-oxopyridin-1(2H)-yl)methyl]imidazolidine-2,4-dione], the IC50 was < 100 nM.

In the case of `C=Cc1ccc(C2(Cn3cccc(C)c3=O)NC(=O)NC2=O)cc1` (centres unmarked) [Compound I-43, 5-[(3-methyl-2-oxopyridin-1(2H)-yl)methyl]-5-(4-vinylphenyl)imidazolidine-2,4-dione], the IC50 was < 100 nM.

In the case of `COc1ccc(C2(Cn3cccc(Br)c3=O)NC(=O)NC2=O)cc1` (centres unmarked) [Compound I-52, 5-[(3-bromo-2-oxopyridin-1(2H)-yl)methyl]-5-(4-methoxyphenyl)imidazolidine-2,4-dione], the IC50 is < 100 nM.

With `Cc1ccc(C2(Cn3cccc(C)c3=O)NC(=O)NC2=O)c(F)c1F` (centres unmarked) [Compound I-128], the concentration for half-maximal inhibition (IC50) is < 100 nM.

For the compound `Cc1cccn(CC2(c3ccc(Oc4ccccc4)c(Cl)c3)NC(=O)NC2=O)c1=O` (centres unmarked) [Compound I-123], the 50% inhibitory concentration (IC50) was < 100 nM.

With `O=C1NC(=O)C(Cn2cccc(Cl)c2=O)(c2ccc(F)c(F)c2)N1` (centres unmarked) [Compound I-146], the IC50 was < 100 nM.

Take `Cc1cccn(CC2(c3ccc4ccccc4c3)NC(=O)NC2=O)c1=O` (centres unmarked) [Compound I-56]: the half-inhibitory concentration (IC50) was < 100 nM.

`Cc1cccn(CC2(c3ccc(C(F)(F)F)cc3)NC(=O)NC2=O)c1=O` (centres unmarked) [Compound I-89]: the half-inhibitory concentration (IC50) was < 100 nM.

For the compound `Cc1cccn(CC2(c3cccc(-c4ccccn4)c3)NC(=O)NC2=O)c1=O` (centres unmarked) [Compound I-94], the IC50 was < 100 nM.

As to `Cc1cccn(CC2(c3cccc(F)c3F)NC(=O)NC2=O)c1=O` (centres unmarked) [Compound I-153], the half-inhibitory concentration (IC50) is < 100 nM.

Consider `Cc1cccn(CC2(c3ccc(Oc4ccc(F)cc4F)cc3)NC(=O)NC2=O)c1=O` (centres unmarked) [Compound I-97], for which the 50% inhibitory concentration (IC50) was < 100 nM.

As to `Cc1cccn(CC2(c3ccc4sccc4c3)NC(=O)NC2=O)c1=O` (centres unmarked) [Compound I-23, 5-(benzo[b]thiophen-5-yl)-5-[(3-methyl-2-oxopyridin-1(2H)-yl)methyl]imidazolidine-2,4-dione], the IC50 was < 100 nM.

On to `COc1ccc(C2(Cn3cccc(C(F)(F)F)c3=O)NC(=O)NC2=O)cc1` (centres unmarked) [Compound I-141], for which the 50% inhibitory concentration (IC50) is < 100 nM.

As for `Cc1cccn(CC2(c3ccc(Cl)c(Cl)c3)NC(=O)NC2=O)c1=O` (centres unmarked) [Compound I-125], the concentration for half-maximal inhibition (IC50) is < 100 nM.

In the case of `Cc1cccn(CC2(c3cc4ccccc4o3)NC(=O)NC2=O)c1=O` (centres unmarked) [Compound I-6, 5-(benzofuran-2-yl)-5-[(3-methyl-2-oxopyridin-1(2H)-yl)methyl]imidazolidine-2,4-dione], the concentration for half-maximal inhibition (IC50) is < 100 nM.

Consider `CCCc1ccc(C2(Cn3cccc(C)c3=O)NC(=O)NC2=O)cc1` (centres unmarked) [Compound I-45, 5-[(3-methyl-2-oxopyridin-1(2H)-yl)methyl]-5-(4-propylphenyl)imidazolidine-2,4-dione], for which the concentration for half-maximal inhibition (IC50) was < 100 nM.

Regarding `Cc1cccn(CC2(c3ccc(Oc4ccc(F)cc4)c(F)c3)NC(=O)NC2=O)c1=O` (centres unmarked) [Compound I-111], the IC50 is < 100 nM.

In the case of `N#Cc1ccc(C2(Cn3cccc(C(F)(F)F)c3=O)NC(=O)NC2=O)cc1` (centres unmarked) [Compound I-142], the concentration for half-maximal inhibition (IC50) is < 100 nM.

As to `Cc1cccn(CC2(c3ccc(-c4ccccn4)cc3)NC(=O)NC2=O)c1=O` (centres unmarked) [Compound I-92], the IC50 was < 100 nM.

Regarding `CCOc1ccc(C2(Cn3cccc(C)c3=O)NC(=O)NC2=O)cc1` (centres unmarked) [Compound I-119], the IC50 was < 100 nM.
